# Data as given in PubChem BioAssay (NCI).
# Values joined by “and” are separate entries in the source; they are usually repeats but may differ in a detail not shown here. Equal values may be shown once.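 Five compound concentrations were applied to cells in 96-well plates for 48 hours; endpoints were derived by simple linear interpolation of the resulting dose-response curve. GI50 marks 50% less growth. The concentration for full growth arrest is given as TGI.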
# Tests used:
# Assay in all cases: NCI-60 cell line screen, 48 h
# [1] = test system: HT29 colon
# [2] = test system: UO-31 renal
# [3] = test system: HCC-2998 colon
# [4] = test system: OVCAR-5 ovarian
# [5] = test system: UACC-62 melanoma
# [6] = test system: NCI-H460 lung
# [7] = test system: NCI/ADR-RES ovarian
# [8] = test system: DU-145 prostate
# [9] = test system: M14 melanoma
# [10] = test system: HCT-116 colon
# [11] = test system: SR leukemia
# [12] = test system: SNB-19 CNS
# [13] = test system: HS 578T breast
# [14] = test system: NCI-H226 lung
# [15] = test system: T-47D breast
# [16] = test system: A549 NSCLC
SMILES,TGI [1] [µM],TGI [2] [µM],TGI [3] [µM],TGI [4] [µM],TGI [5],TGI [6] [µM],TGI [7] [µM],TGI [8] [µM],TGI [9] [µM],TGI [10] [µM],TGI [11] [µM],TGI [12] [µM],TGI [13] [µM],TGI [14] [µM],TGI [15] [µM],TGI [16] [µM],GI50 [5] [µM],GI50 [6] [µM],GI50 [14] [µM],GI50 [10] [µM]
CSC(=NCCN=C(NS(=O)(=O)c1ccc(Cl)cc1)SC)NS(=O)(=O)c1ccc(Cl)cc1,> 100,> 100,> 100,> 100,> 100 µM,> 100,> 100,> 100,> 100,> 100,> 100,> 100,–,–,–,–,–,–,–,–
Cc1ccc(/C=N/Nc2ncccn2)s1,> 100,> 100,> 100,> 100,> 100 µM,–,> 100,–,> 100,> 100,–,> 100,> 100,> 100,> 100,> 100,–,–,–,–
COc1cc(CC2c3cc(OC)c(OC)cc3CCN2C)c(Oc2cc3c(cc2OC)-c2c(OC)c(OC)c(OC)c4c2C(C3)N(C)CC4)cc1OC (stereo unspecified),> 36.5,22.1,13.7,30.6,29.1 µM,32.7,–,–,5.76,24.3,–,43.3,–,32.7,–,30.6,–,–,–,–
CC1OC(=O)c2ccccc2NC1=O (stereo unspecified),> 100,> 100,–,> 100,> 100 µM,> 100,> 100,> 100,> 100,> 100,> 100,> 100,> 100,> 100,–,> 100,–,–,–,–
CCOC(=O)CCC(NC(=O)OCc1ccccc1)C(=O)NC(CCC(=O)OCC)C(=O)NC(CCC(=O)OCC)C(=O)NC(CCC(=O)OCC)C(=O)NC(CCC(=O)OCC)C(=O)OCC (stereo unspecified),> 100,> 100,–,> 100,> 100 µM,> 100,> 100,> 100,> 100,> 100,> 100,–,> 100,–,> 100,> 100,–,–,–,–
O=C(C1OC1c1ccc([N+](=O)[O-])cc1)C12CC3CC(CC(C3)C1)C2 (stereo unspecified),47.7,32.4,44.4,39.9,28.9 µM,28.5,39.2,46.2,30.1,22,–,32,50.3,39.4,37.3,52.7,–,–,–,–
Cc1n[nH]c(=O)n1N=C(c1ccccc1)c1ccccc1,> 100,> 100,–,> 100,> 100 µM,> 100,> 100,> 100,> 100,> 100,–,> 100,> 100,> 100,–,> 100,–,–,–,–
CCN(CC)CCNc1ccc(C)c2sc3ccc(O)cc3c(=O)c12,3.24,3.82,2.66,9.3,2.21 µM,1.37,–,–,2.48,2.56,0.981,15.6,–,2,–,1.91,–,–,–,–
Nc1ccn(C2OC(COP(=O)(O)Oc3ccccc3)C(O)C2O)c(=O)n1 (stereo unspecified),> 100,> 100,> 100,> 100,> 100 µM,> 100,> 100,–,–,> 100,–,> 100,–,> 100,–,> 100,–,–,–,–
C=C(Cl)C(Cl)(CBr)CCC(Cl)C(C)(C)Cl (stereo unspecified),0.968,5.15,16.4,7.41,–,2.83,11.8,3.31,35.6,2.02,39.4,7,0.284,61,–,12.7,–,–,–,–
COc1ccc2c(c1)c1cc(OC)ccc1n2CCCCOc1ccc(-c2c3ccccc3c(-c3ccc(OCCCCn4c5ccc(OC)cc5c5cc(OC)ccc54)cc3)c3ccccc23)cc1,–,> 100,> 100,> 100,> 100 µM,–,–,–,> 100,> 100,–,> 100,–,> 100,–,> 100,–,–,–,–
COCN1C(=O)[C@@H]2CCCN2C(=O)c2cc([N+](=O)[O-])ccc21,> 100,> 100,–,> 100,> 100 µM,–,> 100,> 100,> 100,> 100,–,> 100,> 100,> 100,> 100,> 100,–,–,–,–
Cc1nc(-c2nc([N+](=O)[O-])c([N+](=O)[O-])[nH]2)cs1,> 100,> 100,> 100,> 100,> 100 µM,> 100,–,–,> 100,> 100,> 100,> 100,–,> 100,–,> 100,–,–,–,–
CC(C)(C)/C(O)=C\c1nc2cc(C(F)(F)F)ccc2[nH]c1=O,> 100,> 100,–,> 100,> 100 µM,–,> 100,> 100,> 100,> 100,–,> 100,> 100,> 100,> 100,> 100,–,–,–,–
S=C(Nc1ccc(Br)cn1)NC12CC3CC(CC(C3)C1)C2,–,> 100,83.3,90.7,43.4 µM,> 100,55.7,> 100,> 100,35.3,> 100,25.9,–,64.8,> 100,53.5,–,–,–,–
COC(=O)C1=C(O)C(C(=O)OC)[C@]2(O)[C@H](C(=O)OC)[C@H]1C[C@@H](c1ccc(OC)cc1)[C@H]2C(=O)OC (stereo partly specified),97.7,34.9,37.8,51.9,25.8 µM,50,> 100,–,66.6,38.5,86.1,79.8,> 100,> 100,> 100,62.8,–,–,–,–
CNC(=O)CN1CC(=O)N(C)C(=O)C1,–,> 100,> 100,> 100,> 100 µM,–,–,–,> 100,–,> 100,> 100,–,> 100,–,–,–,–,–,–
CCN1/C(=C/C(C)=C/c2sc3ccccc3[n+]2CC)Sc2ccccc21,1.72,1.47,0.876,1.73,1.21 µM,0.517,–,–,0.847,1.42,1.75,0.0976,–,–,–,1.42,–,–,–,–
CN1CCN(c2ccc3[nH]c(C4=C(O)c5nc(CO)n(C)c5C(=O)C4=O)nc3n2)CC1,> 100,> 100,> 100,> 100,> 100 µM,> 100,> 100,> 100,> 100,> 100,–,> 100,> 100,> 100,> 100,> 100,–,–,–,–
N#Cc1c(-c2ccc(Cl)cc2)c(C#N)c(=O)n(NS(=O)(=O)c2ccccc2)c1-c1ccccc1,–,–,> 25,> 25,> 25 µM,> 25,–,–,> 25,> 25,–,> 25,–,–,–,> 25,–,–,–,–
Cc1ccc2[nH]c3c(C)c4ccncc4c(C)c3c2c1,2.58,3.03,2.87,2.81,3.26 µM,1.77,2.24,–,3.29,1.61,4.25,2.62,–,7.59,–,2.63,–,–,–,–
CC(=O)Oc1c(OC(C)=O)c(-c2ccc(O)c(O)c2)c(O)c(O)c1-c1ccc(O)cc1,> 100,> 100,> 100,> 100,45.4 µM and 75.5 µM,> 100,> 100,–,–,> 100,–,> 100,–,> 100,–,> 100,21.7,69.7,79.7,36.1
CCCc1c2c3ccccc3nc-2nc2ccccn12,> 100,> 100,–,88.1,> 100 µM,> 100,> 100,> 100,> 100,–,> 100,> 100,> 100,–,> 100,> 100,–,–,–,–
NNC(=O)c1n[nH]nc1SSc1n[nH]nc1C(=O)NN,> 100,> 100,> 100,> 100,> 100 µM,> 100,> 100,> 100,> 100,> 100,–,> 100,> 100,> 100,–,> 100,–,–,–,–
C=C1C(=O)OC2/C=C(\C)C(O)/C=C\C(C)(O)CC(OC(=O)/C(C)=C/C)C12 (stereo unspecified),> 100,> 100,> 100,> 100,32.6 µM,> 100,–,–,32.7,30,55.7,98.8,–,> 100,–,> 100,–,–,–,–
COc1cc2c(c(OC)c1OC)C(=O)CC2N (stereo unspecified),> 100,> 100,> 100,> 100,> 100 µM,> 100,> 100,–,> 100,> 100,–,> 100,> 100,> 100,–,> 100,–,–,–,–
